Our source for the Kd, fraction unbound and EC50 values is patent US20230158179A1, “RADIOPHARMACEUTICAL CONJUGATE COMPOSITIONS AND USES THEREOF” (RayzeBio, Inc., priority 2020, published 2023).

One data set concerns the target T1, FOLR1 (Homo sapiens, UniProt P15328).
T1 construct: purchased AcroBiosystems F01-H82F9
Description: Peptide binding to FOLR1 (SPR, Biacore 8K). As to conditions: FOLR1-Fc-Avi immobilized, 25° C., Langmuir 1:1 binding model. Here is the method: For analysis of peptide binding, a Biacore 8K instrument was used utilizing either a SA chip or a CAP chip. FOLR1-Fc-Avi (AcroBiosystems, F01-H82F9) was immobilized on the chip using streptavidin-biotin chemistry at 25° C. in PBS-P+ buffer (20 mM phosphate, 2.7 mM KCl, 137 mM NaCl, 0.05% Tween-20, pH 7.4) to a level of 500-2500 RU (dependent on the analyte molecular weight). A dilution series of peptides was prepared in this buffer with a final DMSO concentration of 1% with a top peptide concentration at 50 or 100 nM and 8 further 2-fold dilutions. The SPR analysis was run at 25° C. at a flow rate of 100 μL/min in PBS-P+ with 1% DMSO running buffer and with a 120 second association and 10,000 second dissociation using single cycle kinetics methodology. All data was analyzed using Biacore Insight Evaluation Software version 3.) Data was fitted using a Langmuir 1:1 binding model.
Kd values of peptides of the present disclosure are given in Table 8 below, where Kd 0 nM<A≤10 nM.
For orientation: Surface plasmon resonance follows binding to a sensor surface in real time, without labels.

The next data set deals with T2, PSMA (Homo sapiens, UniProt Q04609).
T2 construct: purchased AcroBiosystems PSA-H82Qb
Description: Peptide binding to PSMA (SPR, Biacore 8K). Conditions: His-Avi-PSMA immobilized, 25° C., Langmuir 1:1 binding model. On the procedure: For analysis of peptide binding, a Biacore 8K instrument was used utilizing a SA chip. His-Avi-PSMA (AcroBiosystems, PSA-H82Qb) was immobilized on the chip using streptavidin-biotin chemistry at 25° C. in HBS-P+ buffer (10 mM HEPES, 150 mM NaCl, 0.05% Tween-20, pH 7.4) to a level of 800-2200 RU (dependent on the analyte molecular weight). A dilution series of peptides was prepared in this buffer with a final DMSO concentration of 1% with a top peptide concentration between 10-100 nM and 8 further 2-fold dilutions. The SPR analysis was run at 25° C. at a flow rate of 100 μL/min in HBS-P+ with 1% DMSO running buffer and with a 120 second association and 10,000 second dissociation using single cycle kinetics methodology. All data was analyzed using Biacore Insight Evaluation Software version 3. Data was fitted using a Langmuir 1:1 binding model.

The target in data set [1] is T3, Human Serum Albumin (HSA) (Homo sapiens, UniProt P02768).
T3 construct: purchased ChiralPAK HSA HPLC column, 50×4 mm
Description: HSA-HPLC plasma protein binding (immobilized human serum albumin-HPLC). It counts as in vitro ADME. Conditions: HSA-HPLC method, room temperature, estimated from gradient retention times, read-out: % Bound to HSA at r.t. An excerpt:
• HSA-HPLC method (measurement of drug protein binding by immobilized human serum albumin-HPLC). A 13-minute HPLC (Thermo Vanquish Horizon with Diode Array Detector) gradient method was used to determine the HSA (Human Serum Albumin) binding of novel compounds using a chemically bonded protein stationary phase (ChiralPAK HSA HPLC column, 50×4 mm). The HSA binding values were derived from the gradient retention times that were converted to the logarithm of the equilibrium constant using data from a calibration set of molecules. The % bound to plasma values for the calibrator compounds were converted to the linear free energy values using the following equation: LogK=log[% PPB/(101−% PPB)]. The logarithmic value of the gradient retention times from the experiment were plotted against the linearized values of the percent bound to plasma. The slope and the intercept were used to convert the retention times to linear free energy values (LogK), from which the estimated % protein binding was calculated using the following equation: % Binding=[(101·10^LogK)/(1+10^LogK)]. Aqueous mobile phase (A) was 50 mM ammonium acetate solution, ph7.4 and the organic mobile phase (B) was 2-propanol. […] Chromatograms were recorded at 280 nm by a diode array UV absorption detector. […]

A further data set concerns the target T4, Trop-2 (Homo sapiens, UniProt P09758).
T4 construct: purchased AcroBiosystems TR2-H5223
T4 sequence (P09758 27-323): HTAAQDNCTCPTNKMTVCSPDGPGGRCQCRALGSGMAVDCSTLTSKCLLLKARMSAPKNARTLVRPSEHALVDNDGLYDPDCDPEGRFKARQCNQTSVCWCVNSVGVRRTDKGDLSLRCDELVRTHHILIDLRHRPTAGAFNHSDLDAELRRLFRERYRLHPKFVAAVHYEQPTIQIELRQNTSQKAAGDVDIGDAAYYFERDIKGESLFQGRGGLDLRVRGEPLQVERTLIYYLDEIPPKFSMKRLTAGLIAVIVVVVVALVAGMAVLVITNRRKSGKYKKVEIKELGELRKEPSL
The data set is described as follows: Conjugate binding to Trop-2 (BLI, GatorPrime). As to conditions: biotinylated peptides immobilized, His-tagged Trop-2, 30° C., Langmuir 1:1 binding model. On the procedure: For analysis of peptide binding, a GatorPrime instrument was used utilizing SMAP probes. Biotinylated peptides of 1 μM were immobilized on the sensor using streptavidin-biotin chemistry at 25° C. in HBS-P+ buffer (10 mM HEPES, 150 mM NaCl, 0.05% Tween-20, pH 7.4). A dilution series of His-tagged Trop-2 (AcroBiosystems, TR2-H5223) was prepared in this buffer with a top peptide concentration at 100 nM and 6 further 3-fold dilutions. The BLI analysis was run at 30° C. with a 120 second association and 120 second dissociation. All data was analyzed using GatorLaunch software. Data was fitted using a Langmuir 1:1 binding model.

The subject of data set [2] is PSMA expressing cells (LnCap). Description: FACS binding to PSMA expressing cells. It counts as cell-based. Conditions: biotinylated compounds. Here is the method:
LnCap cells, 2e^6 cells/ml
SYTOX viability dye • (1) Washed cells with PBS once. • (2) Incubated cells with 5 ml of Accutase at 37 degrees for 2-5 minutes. Gently rocking the flask until the layer of cells pilling off • (3) Added 15 ml of PBS into flask and transferred to a 50 ml conical tube • (4) Spun down 1600 rpm 3 minutes • (5) Resuspended in 2 ml of PBS, and counted cells • (6) Adjusted cell density to 2e6 cells/ml with PBS and then added 100 uL/well to the plate and mixed well • (7) Spun down 1600 rpm 3 minutes • (8) Add 100 uL of compound/well respectively. Prepared serial dilute compound in PBS, 1 uM to 0.01 nM, 1:3 dilution, 10 point curve • (9) Incubated for 50 minutes total • (10) Washed wells with 150 uL PBS and spun down 1600 rpm 3 min and dumped • (11) Added SA-A647, 1:1000 dilution in FACS buffer, 100 ul/well to respective wells • (12) Incubated for 50 min on ice • (13) Washed with 200 uL PBS spun 1600 rpm 3 min dump • (14) Resuspended in 100 uL SYTOX, 1:1000 dilution in FACS buffer • (15) Acquired
(In general: In flow cytometry, cells or beads pass a laser one at a time.)

Where two headings read alike, the source gives them in different places. Numbered stars: 1 amine (or outer) side, 2 acyl side, 3 side chain; on linkers, the order of the positions; unused ones are H or OH. Bridge positions count the residues as written; N and C are the ends. Square brackets hold non-standard residues; d marks the D form. Peptide text beside a SMILES is read from it. Trp(6-Cl) = N[C@@H](Cc1c[nH]c2cc(Cl)ccc12)C(=O)O; Phe(3-Ph) = N[C@@H](Cc1cccc(-c2ccccc2)c1)C(=O)O; Bip = N[C@@H](Cc1ccc(-c2ccccc2)cc1)C(=O)O; Phe(3-Cl) = N[C@@H](Cc1cccc(Cl)c1)C(=O)O; γGlu = O=C(O)[C@H](CCC(=O)[*:2])N[*:1]; NMeY = CN[C@@H](Cc1ccc(O)cc1)C(=O)O; NMeF = CN[C@@H](Cc1ccccc1)C(=O)O; hPhe = N[C@@H](CCc1ccccc1)C(=O)O; 3Pal = N[C@@H](Cc1cccnc1)C(=O)O; Ahp(2) = CCCCC[C@H](N)C(=O)O; Cba = N[C@@H](CC1CCC1)C(=O)O; Chg = N[C@H](C(=O)O)C1CCCCC1; NMeA = CN[C@@H](C)C(=O)O; βAla = NCCC(=O)O; Sar = CNCC(=O)O

T1 sequence (P15328 25-234): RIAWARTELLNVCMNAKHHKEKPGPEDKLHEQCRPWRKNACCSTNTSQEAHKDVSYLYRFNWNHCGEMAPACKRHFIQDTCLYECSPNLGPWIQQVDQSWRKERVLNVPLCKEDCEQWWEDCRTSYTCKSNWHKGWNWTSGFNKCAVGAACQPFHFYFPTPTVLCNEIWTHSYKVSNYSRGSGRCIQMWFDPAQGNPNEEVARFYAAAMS
T3 sequence (P02768 25-609): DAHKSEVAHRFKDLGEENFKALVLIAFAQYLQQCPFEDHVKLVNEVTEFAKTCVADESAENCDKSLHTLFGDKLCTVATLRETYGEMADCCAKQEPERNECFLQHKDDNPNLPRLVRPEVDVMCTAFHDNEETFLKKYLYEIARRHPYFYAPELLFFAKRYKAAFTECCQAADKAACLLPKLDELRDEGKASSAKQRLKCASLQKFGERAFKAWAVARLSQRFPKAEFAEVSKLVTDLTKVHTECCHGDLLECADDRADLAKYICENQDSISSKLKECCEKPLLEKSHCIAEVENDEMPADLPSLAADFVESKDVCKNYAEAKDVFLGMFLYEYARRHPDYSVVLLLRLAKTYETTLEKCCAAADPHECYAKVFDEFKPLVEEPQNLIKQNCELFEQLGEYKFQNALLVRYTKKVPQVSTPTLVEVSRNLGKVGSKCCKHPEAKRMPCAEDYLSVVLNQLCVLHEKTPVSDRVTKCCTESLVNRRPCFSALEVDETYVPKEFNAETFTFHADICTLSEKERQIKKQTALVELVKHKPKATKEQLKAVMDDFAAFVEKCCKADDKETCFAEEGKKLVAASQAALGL
T2 sequence (Q04609 whole entry): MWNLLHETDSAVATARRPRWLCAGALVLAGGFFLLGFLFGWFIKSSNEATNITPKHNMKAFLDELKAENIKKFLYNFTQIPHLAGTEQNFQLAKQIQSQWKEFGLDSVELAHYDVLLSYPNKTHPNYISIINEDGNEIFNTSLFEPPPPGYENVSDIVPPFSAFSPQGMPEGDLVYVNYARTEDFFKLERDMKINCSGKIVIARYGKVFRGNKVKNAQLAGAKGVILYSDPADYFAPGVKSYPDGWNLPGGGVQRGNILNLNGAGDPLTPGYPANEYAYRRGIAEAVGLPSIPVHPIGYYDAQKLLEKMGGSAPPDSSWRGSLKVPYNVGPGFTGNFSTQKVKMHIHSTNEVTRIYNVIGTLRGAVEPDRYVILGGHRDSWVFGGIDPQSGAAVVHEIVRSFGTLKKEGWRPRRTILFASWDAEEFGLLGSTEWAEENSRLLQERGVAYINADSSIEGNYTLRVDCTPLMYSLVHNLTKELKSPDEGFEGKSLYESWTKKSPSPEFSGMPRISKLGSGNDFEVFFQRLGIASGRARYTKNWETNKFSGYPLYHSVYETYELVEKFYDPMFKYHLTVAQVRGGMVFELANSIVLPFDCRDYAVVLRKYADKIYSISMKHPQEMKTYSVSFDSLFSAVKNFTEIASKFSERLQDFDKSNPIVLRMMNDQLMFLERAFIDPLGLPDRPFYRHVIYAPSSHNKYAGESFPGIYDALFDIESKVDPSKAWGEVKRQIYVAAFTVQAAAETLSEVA

The Kd is the equilibrium constant for the complex coming apart. Take `CC(C)C[C@@H]1NC(=O)[C@H](CCCNC(=N)N)NC(=O)[C@H](C)NC(=O)CSC[C@@H](C(N)=O)NC(=O)[C@H](Cc2ccc(O)cc2)NC(=O)[C@H](Cc2c[nH]c3ccccc23)NC(=O)[C@H](Cc2ccc(O)cc2)N(C)C(=O)[C@H](Cc2ccc(O)cc2)N(C)C(=O)[C@H]([C@@H](C)O)NC(=O)[C@H](CC(=O)O)NC(=O)[C@H](Cc2ccc(O)cc2)NC(=O)[C@H](CC(=O)O)NC(=O)[C@H](Cc2ccccc2)N(C)C1=O` [Compound P-10] ({CH2CO}-ARL[NMeF]DYDT[NMeY][NMeY]WYC-NH2; thioether N-13): on FOLR1, the Kd was < 10 nM.

In the case of `C[C@@H](O)[C@@H]1NC(=O)[C@H](CC(=O)O)NC(=O)[C@H](Cc2cccc(Cl)c2)NC(=O)[C@H](CC(=O)O)NC(=O)[C@H](Cc2ccccc2)N(C)C(=O)[C@H](C2CCCCC2)NC(=O)[C@H](CCCNC(=N)N)NC(=O)[C@H](CC(=O)O)NC(=O)CSC[C@@H](C(N)=O)NC(=O)[C@H](Cc2ccc(O)cc2)NC(=O)[C@H](Cc2c[nH]c3ccccc23)NC(=O)[C@H](Cc2ccc(O)cc2)N(C)C(=O)[C@H](Cc2ccc(O)cc2)N(C)C1=O` [Compound P-11] ({CH2CO}-DR[Chg][NMeF]D[Phe(3-Cl)]DT[NMeY][NMeY]WYC-NH2; thioether N-13), the dissociation constant Kd at FOLR1 was < 10 nM.

With `C[C@@H](O)[C@@H]1NC(=O)[C@H](CC(=O)O)NC(=O)[C@H](Cc2ccc(O)cc2)NC(=O)[C@H](CC(=O)O)NC(=O)[C@H](Cc2ccccc2)N(C)C(=O)[C@H](C2CCCCC2)NC(=O)[C@H](CCCNC(=N)N)NC(=O)[C@H](CC(=O)O)NC(=O)CSC[C@@H](C(N)=O)NC(=O)[C@H](Cc2ccc(O)cc2)NC(=O)[C@H](Cc2c[nH]c3ccccc23)NC(=O)[C@H](Cc2ccc(O)cc2)N(C)C(=O)[C@H](Cc2ccc(O)cc2)N(C)C1=O` [Compound P-12] ({CH2CO}-DR[Chg][NMeF]DYDT[NMeY][NMeY]WYC-NH2; thioether N-13), the Kd at FOLR1 is < 10 nM.

Regarding `CC(C)[C@@H]1NC(=O)[C@H](CC(=O)O)NC(=O)[C@H](Cc2cccc(-c3ccccc3)c2)NC(=O)[C@H](Cc2c[nH]c3ccccc23)NC(=O)CSC[C@@H](C(N)=O)NC(=O)[C@H](CC(=O)O)NC(=O)[C@H](Cc2cccc(-c3ccccc3)c2)NC(=O)[C@H](Cc2c[nH]c3ccccc23)NC(=O)[C@H](CC2CCC2)NC(=O)[C@H](CC(=O)O)NC(=O)[C@H](CO)NC(=O)[C@H](CC(=O)O)NC1=O` [Compound P-21] ({CH2CO}-W[Phe(3-Ph)]DVDSD[Cba]W[Phe(3-Ph)]DC-NH2; thioether N-12), the Kd at PSMA is < 10 nM.

On to `CC[C@H](C)[C@@H]1NC(=O)[C@H](Cc2cccnc2)NC(=O)[C@@H](Cc2ccccc2)NC(=O)CSC[C@@H](C(N)=O)NC(=O)[C@H]([C@@H](C)CC)NC(=O)[C@H]([C@@H](C)CC)NC(=O)[C@H](Cc2ccccc2)NC(=O)[C@H](Cc2ccc(O)cc2)N(C)C(=O)[C@H](CC(=O)O)NC(=O)[C@H](CO)NC(=O)[C@H](C)N(C)C(=O)[C@H](C)N(C)C(=O)[C@H](Cc2cccnc2)NC(=O)[C@H](CC(C)C)NC1=O` [Compound P-30] ({CH2CO}-[dF][3Pal]IL[3Pal][NMeA][NMeA]SD[NMeY]FIIC-NH2; thioether N-14), for which, in data set [1] (plasma), the fraction unbound was 0.1 to 0.3.

Take `CCCCC[C@@H]1NC(=O)CN(C)C(=O)[C@H](C(C)C)NC(=O)[C@H](Cc2c[nH]c3cc(Cl)ccc23)NC(=O)CNC(=O)[C@H]([C@@H](C)O)NC(=O)[C@H](Cc2ccccc2)N(C)C(=O)CNC(=O)[C@H](CCCNC(=N)N)NC(=O)[C@H](Cc2ccc(O)cc2)NC(=O)[C@H](Cc2cccc(Cl)c2)NC(=O)[C@H](C(C)C)NC(=O)[C@H](C)NC(=O)CSC[C@@H](C(N)=O)NC1=O` [Compound P-31] ({CH2CO}-AV[Phe(3-Cl)]YRG[NMeF]TG[Trp(6-Cl)]V[Sar][Ahp(2)]C-NH2; thioether N-14): the fraction unbound in data set [1] is 0.1 to 0.3.

“C-40: "Conjugate C-40 contains a monocyclic peptide P-40 of Table 3"; made from peptide-3 and DOTA-OSu ([dA]D[Bip]IYPA[Bip]SSES[NMeF]C[βAla][dK](PEG‑DOTA)[γGlu][γGlu]-NH2; bridge N-14; not fully specified (bridges)) [Compound C-40]” displayed a Kd with Trop-2 of 10 to 1000 nM.

Usually EC50 stands for the concentration giving half of the maximal effect. Higher therefore signals a need for much substance. On to “P-22 ([NMeF]DDSVWD[hPhe]YC-NH2; bridge N-10; not fully specified (N-terminus, bridges)) [Compound P-22]”, for which the EC50 in data set [2] was 100 to 1000 nM.
